Converted amounts (≈) assume the structure as drawn.
How the values were obtained:
[1] = in water; cited from earlier work
physchem = settings: 25 °C
From the text: Fine and highly monodispersed coloring particles intended according to aspects of the present invention may contain a dye hardly soluble in the water contained in the second liquid described later. […] The solubility parameter of the dye, however, may vary depending on the pH of the water containing it.
The solubility parameter used according to aspects of the present invention can be calculated by measuring the degree of water solubility (mol/L) of the dye by any known experimental method and then substituting the measurement into equation (1). […] For dyes such as metal complex dyes and salt dyes, the metal or salt is first removed, and then the degree of solubility is calculated using ACD/Structure Design Suite and the solubility parameter is calculated from the value.

## CCCCCCCCCCCCOS(=O)(=O)[O-].[Na+] [sodium dodecyl sulfate]
[1]
  Critical micelle concentration: 0.0025 g/mL

## Cc1cccc(Nc2cccc3c2C(=O)c2cccc(Nc4cccc(C)c4)c2C3=O)c1 [dye 2]
physchem; pH 6, aqueous buffer
  solubility: ≤ 0.631 nM

## Cc1cc(Br)c(Nc2ccc(O)c3c2C(=O)c2ccccc2C3=O)c(Br)c1 [dye 4]
physchem; pH 6, aqueous buffer
  solubility: 0.794 nM (≈ 0.387 ng/mL)
physchem; pH 11, aqueous buffer
  solubility: 813 nM (≈ 396 ng/mL)

## CC1(C)Nc2cccc3c(/N=N/c4ccc(/N=N/c5ccccc5)c5ccccc45)ccc(c23)N1 [dye 1]
physchem; pH 6, aqueous buffer
  solubility: ≤ 0.631 nM
